Test results published in patent US10640507B2, “PBD antibacterial agents” (KING'S COLLEGE LONDON, priority 2015, dated 2020).
Values after ≈ are worked out from the molar mass of the structure shown. Read-outs that look alike come from different tables or passages of the source.

Experiments:
[1] = system: E. faecalis VRE NCTC 12201; assay: General MIC protocol, Gram positive panel; assay type: cell-based
Experimental: (§1) General Minimum Inhibitory Concentration (MIC) Protocol
(§2) 1. Grow up cultures of bacterial strains to be tested overnight.
(§3) 2. Dilute down overnight cultures to concentration of 1×10^6 bacteria/ml (OD0.01) in Tryptic soy broth (TSB).
(§4) 3. Add 100 μl of TSB media to column 2-column 12 in 96 well plate (keeping column 1 clear).
(§5) 4. Make up compound to a concentration of 64 μg/ml in water (or alternatively to twice the chosen maximum concentration to be tested).
(§6) 5. Add 100 μl of antibiotic solution to the 1st and 2nd columns.
(§7) 6. Using a multichannel pipette take 100 μl from the 2nd column wells and pipette into 3rd column wells and repeat down the 96 well plate (remembering to include controls i.e. uninfected media and media with no antibiotic).
(§8) 7. To each well (except uninfected control row H) add 100 μl of bacterially infected media at a concentration of 1×10^6/ml.
(§9) 8. This dilutes down the concentration of the antibiotic by half (top dose is therefore 32 μg/ml in column 1) and also gives you a starting bacterial concentration of 5×10^5/ml.
(§10) 9. Wrap plate with parafilm to prevent evaporation.
(§11) 10. Leave at desired temperature (37° C. unless specified elsewhere) for 20 hours.
(§12) 11. Next day check plates for growth and measure optical density (i.e. absorbance) at a wavelength of 600 nm (OD600).
(§13) An example of such a plate is shown in FIG. 1 where column A represents wells that receive the top dose 100 μl; column B represents wells that receive the top dose 100 μl+100 μl TSB; and column C represents wells that receive 100 μl TSB. Row H which is marked by a box labelled D represents a blank where the cells receive no bacteria.

[2] = system: E. faecalis VSE NCTC 775; assay: General MIC protocol, Gram positive panel; assay type: cell-based; details: Enterococcus faecalis, NCTC775; VSE 775
Experimental: as §1, §2, §3, §4, §5, §6, §7, §8, §9, §10, §11, §12, §13

[3] = system: E. faecium VRE NCTC 12204; assay: General MIC protocol, Gram positive panel; assay type: cell-based
Experimental: as §1, §2, §3, §4, §5, §6, §7, §8, §9, §10, §11, §12, §13

[4] = system: EMRSA-15; assay: General MIC protocol, Gram positive panel; assay type: cell-based
Experimental: as §1, §2, §3, §4, §5, §6, §7, §8, §9, §10, §11, §12, §13

[5] = system: EMRSA-16; assay: General MIC protocol, Gram positive panel; assay type: cell-based
Experimental: as §1, §2, §3, §4, §5, §6, §7, §8, §9, §10, §11, §12, §13

[6] = system: methicillin sensitive S. aureus ATTC 9144 (NCTC 6571); assay: General MIC protocol, Gram positive panel; assay type: cell-based; details: Staphylococcus aureus, MSSA / NCTC 6571; MSSA 9144
Experimental: as §1, §2, §3, §4, §5, §6, §7, §8, §9, §10, §11, §12, §13

[7] = system: AYE; assay: Effect of efflux pump inhibitors (EPIs) on MIC; assay type: cell-based, A. bauamnnii; details: for +PABN MIC: PABN at 25 μg/ml
Experimental: as §2, §3, §4
(§14) 4. Make up compound to a concentration of 64 μg/ml in water.
as §6
(§15) 6. Using a multichannel pipette take 100 μl from the 2nd column wells and pipette into 3rd column wells and repeat down the 96 well plate (remember to include controls i.e. uninfected media and media with no antibiotic).
(§16) 7. To each well (except uninfected control row H) add 50 μl/well of EPI at 4× final concentration in TSB.
(§17) 9. In wells used to test the effect of the EPI carbonyl cyanide 3-chlorophenylhydrazone (CCCP) the CCCP is added at 10 μg/ml final concentration.
(§18) 10. In wells used to test the effect of the EPI phenylalanine-arginine β-naphthylamide (PABN) the PABN is added at 25 μg/ml final concentration.
(§19) 11. In wells used to test the effect of the PABN+Mg, the PABN is added at 25 μg/ml final concentration, with 1 mM MgSO4 in TSB.
(§20) 12. Wrap plate with parafilm to prevent evaporation.
(§21) 13. Leave at desired temperature (37° C. unless specified elsewhere) for 20 hours.
(§22) 14. Next day check plates for growth and measure optical density (i.e. absorbance) at a wavelength of 600 nm (OD600).
(§23) Compound KMR-14-33 was tested against a range of bacterial species using the above protocol. Compound PP-A148 was also tested against a more limited range of bacterial species using the above protocol. For KMR-14-33 measurements were carried out for the compound alone, for the compound plus CCCP, for the compound plus PABN and for the compound plus PABN and plus Mg. For PP-A148 measurements were carried out for the compound alone and for the compound plus PABN.

[8] = system: NCTC 17978; assay: Effect of efflux pump inhibitors (EPIs) on MIC; assay type: cell-based, A. bauamnnii; details: for +PABN MIC: PABN at 25 μg/ml
Experimental: as §2, §3, §4, §14, §6, §15, §16, §17, §18, §19, §20, §21, §22, §23

[9] = system: NCTC 13437; assay: Effect of efflux pump inhibitors (EPIs) on MIC; assay type: cell-based, P. aeruginosa; details: for +PABN MIC: PABN at 25 μg/ml; for MIC: Pseudomonas aeruginosa
Experimental: as §2, §3, §4, §14, §6, §15, §16, §17, §18, §19, §20, §21, §22, §23

[10] = system: PA01; assay: Effect of efflux pump inhibitors (EPIs) on MIC; assay type: cell-based, P. aeruginosa; details: for +PABN MIC: PABN at 25 μg/ml; for MIC: Pseudomonas aeruginosa
Experimental: as §2, §3, §4, §14, §6, §15, §16, §17, §18, §19, §20, §21, §22, §23

[11] = read-out: Control with no EPI MIC
[12] = CCCP at 10 μg/ml, read-out: +CCCP MIC
[13] = PABN at 25 μg/ml with 1 mM MgSO4
[14] = no EPI, read-out: Control with no EPI MIC
[15] = NCTC13437, read-out: Control with no EPI MIC

Row | SMILES | MIC [1] | MIC [2] | MIC [3] | MIC [4] | MIC [5] | MIC [6] | +PABN MIC ([7]; AYE) | MIC [7, 11] | +PABN MIC [8] | MIC [8, 14] | +PABN MIC ([9]; NCTC 13437) | MIC [9, 15] | +PABN MIC [10] | MIC [10, 14] | also measured
1 | COc1cc2c(cc1OCCCC(=O)Nc1cc(C(=O)Nc3ccc4sc(C(=O)N(C)C)cc4c3)n(C)c1)N=C[C@@H]1CCCN1C2=O [KMR-14-33, (S)—N-(2-(dimethylcarbamoyl)benzo[b]thiophen-5-yl)-4-(4-((7-methoxy-5-oxo-2,3,5,11a-tetrahydro-1H-benzo[e]pyrrolo[1,2-a][1,4]-diazepin-8-yl)oxy)butanamido)-1-methyl-1H-pyrrole-2-carboxamide] | 0.03 µg/mL (≈ 0.0457 µM) | 0.03 µg/mL (≈ 0.0457 µM) | 0.03 µg/mL (≈ 0.0457 µM) | 0.03 µg/mL (≈ 0.0457 µM) | 0.06 µg/mL (≈ 0.0914 µM) | 0.03 µg/mL (≈ 0.0457 µM) | 0.125 µg/mL | 1 µg/mL (≈ 1.52 µM) | 0.06 µg/mL | 0.5 µg/mL (≈ 0.761 µM) | 16 µg/mL | > 32 µg/mL | 4 µg/mL | > 32 µg/mL | +PABN + Mg MIC ([7]; AYE, PABN at 25 μg/ml with 1 mM MgSO4): 0.25 µg/mL; MIC ([7]; read-out: +CCCP MIC): 0.125 µg/mL (≈ 0.19 µM); MIC [8, 12]: 0.25 µg/mL (≈ 0.381 µM); +PABN + Mg MIC [8, 13]: 0.25 µg/mL; +PABN + Mg MIC ([9]; NCTC 13437, PABN at 25 μg/ml with 1 mM MgSO4): 16 µg/mL; MIC ([9]; NCTC13437, read-out: +CCCP MIC): > 32 µg/mL; +PABN + Mg MIC [10, 13]: 2 µg/mL; MIC [10, 12]: > 32 µg/mL
2 | COc1cc2c(cc1OCCCC(=O)Nc1cc(C(=O)Nc3ccc4oc(C(=O)N5CCSCC5)cc4c3)n(C)c1)N=C[C@@H]1CCCN1C2=O [PP-A148, (S)-4-(4-((7-methoxy-5-oxo-2,3,5,11a-tetrahydro-1H-benzo-[e]pyrrolo[1,2-a][1,4]diazepin-8-yl)oxy)butanamido)-1-methyl-N-(2-(thiomorpholine-4-carbonyl)benzofuran-5-yl)-1H-pyrrole-2-carboxamide] | 0.25 to 0.5 µg/mL (≈ 0.358 to 0.716 µM) | 1 µg/mL (≈ 1.43 µM) | 0.01 µg/mL (≈ 0.0143 µM) | 2 µg/mL (≈ 2.86 µM) | 2 µg/mL (≈ 2.86 µM) | 0.5 µg/mL (≈ 0.716 µM) | 0.125 to 0.5 µg/mL | 2 µg/mL (≈ 2.86 µM) | 0.125 to 0.5 µg/mL | 2 µg/mL (≈ 2.86 µM) | 0.25 to 2 µg/mL | 16 µg/mL (≈ 22.9 µM) | 4 to 8 µg/mL | 128 µg/mL (≈ 183 µM) | 
